≈ marks a conversion by molar mass, not a printed value. Like-named read-outs stand apart in the source and are kept apart here. Marks after values point to notes of the source that are not given here. Values belong to the compound of their own block, whether it stands above or below them.
What was measured:
[1] = pH of the saturated aqueous solutions; type: physicochemical; conditions: saturated aqueous solution of the solubility experiment
Experimental: The concentration was measured by absorbances at 260 nm for 4-chlorobenzaldehyde, 263 nm for 4-bromobenzaldehyde and 2,4-dichlorobenzaldehyde, 297 nm for 2,6-dichlorobenzaldehyde, and 306 nm for 2,3-dichlorobenzaldehyde, using a Cary-60 UV–vis (Agilent) spectrophotometer. X-ray diffraction (XRD) and differential scanning calorimetry of residual solids were used to identify the eventual phase transformations. The purified samples of each compound studied were used for all experimental determinations, including the solubility measurements. After reaching the equilibrium, the residual solid was dried and analyzed using both DSC and XRD. The melting properties obtained from DSC were compared with those of the original purified sample, following the same procedure for the XRD analysis. […] As an example, the supporting information includes two thermograms and two XRD patterns for 2,4-dichlorobenzaldehyde (Figures S1 and S2). […] Equation (4) was derived from Equation (5), which is widely applicable to the solubility of solids.(4) ΔhydrGm°/kJ·mol^−1=9.17−5.71·log10(Scr/mol·m^−3)−ΔcrgGm°/kJ·mol^−1 (5) S=p^°/RTexpΔcrgGm°+ΔhydrGm°/−RT
An excess amount of each compound was added to a known volume of water in triplicate. […] After stirring, the solid phase was allowed to settle for 2 h. The pH of the saturated solutions was measured using a Mettler Toledo (Greifensee, Switzerland) FiveEasy F20 pH Meter calibrated with standard aqueous solutions (pH 7.00 and 4.01 or 10.1). Those solutions were then filtered through a 0.22 μm syringe hydrophilic filter (13 mm, PTFE, Labfil, Zhejiang, China) and diluted to the required concentration. The concentration of the compounds, expressed in molarity, was measured by absorbances using a Cary-60 UV–vis spectrophotometer (Agilent Technologies, Santa Clara, CA, USA) at 298.15 K (single cell Peltier accessory, ±0.15 K). The results reported in Table 6 are averaged from at least three replicates. Calibration was performed using solutions of known concentrations of each substance in water. These solutions were prepared by adding a precise mass of the substance and a specific volume of the solvent to a flask, then mixing until the substance was fully dissolved. The absorbance of these solutions was measured, and calibration curves were created.

[2] = Vapor pressures of crystalline and liquid phases, static method with capacitance diaphragm gauge; type: physicochemical
Source text: A previously described and tested static apparatus was used to measure the vapor pressures of the condensed phases (both crystalline and liquid) of the five compounds studied. This installation employs MKS capacitance diaphragm absolute gauges, operating at self-regulated constant temperatures. Our lab is equipped with three pressure gauges. Gauge I, a Baratron 631A01TBEH (MKS instruments, Andover, MA, USA) (Tgauge = 423 K), measures pressures in the range of 0.5 to 1.3 × 10^2 Pa and operates within a temperature range of 253 to 413 K. Gauge II, the instrument used in this study, is a Baratron 631A11TBFP (MKS instruments, Andover, MA, USA) (Tgauge = 473 K), capable of measuring pressures from 0.5 to 1.3 × 10^3 Pa within a temperature range of 253 to 433 K and gauge III, a Baratron 631D02T8FP (MKS instruments, Andover, MA, USA) (Tgauge = 473 K), designed to measure pressures between 0.5 Pa and 2.6 × 10^2 Pa, also within a temperature range of 253 to 433 K. The temperatures of the samples were measured using a Pt100 platinum resistance thermometer, calibrated by comparison with a standard platinum resistance thermometer (SPRT: Tinsley Precision Instruments Ltd, London, England). To prevent vapor condensation, the tubing connecting the cell containing the condensed sample to the pressure gauge is maintained at a temperature higher than that of the sample but lower than that of the gauge. The uncertainty in temperature measurements is estimated to be u(T/K) = ±0.01, and the expanded uncertainties (0.95 confidence level, k = 2) in pressure measurements are given by the expression U(p/Pa) = 0.1 + 0.0050 (p/Pa) for the gauge used. Samples were thoroughly degassed before starting the vapor pressure measurements, ensuring consistent readings at specific temperatures and eliminating any residual volatile substances, including water.

[3] = cited from earlier work

pH of the saturated solution [1]: 6.39 | vapor pressure p ([2]; crystalline phase, T = 292.72 K): 0.50 Pa | vapor pressure p ([2]; crystalline phase, T = 294.67 K): 0.63 Pa | vapor pressure p ([2]; crystalline phase, T = 296.72 K): 0.81 Pa | vapor pressure p ([2]; crystalline phase, T = 298.56 K): 1.00 Pa | vapor pressure p ([2]; crystalline phase, T = 300.60 K): 1.28 Pa | vapor pressure p ([2]; crystalline phase, T = 302.53 K): 1.58 Pa | vapor pressure p ([2]; crystalline phase, T = 304.58 K): 1.97 Pa | vapor pressure p ([2]; crystalline phase, T = 306.53 K): 2.49 Pa | vapor pressure p ([2]; crystalline phase, T = 308.53 K): 3.07 Pa | vapor pressure p ([2]; crystalline phase, T = 310.48 K): 3.74 Pa | vapor pressure p ([2]; crystalline phase, T = 312.49 K): 4.61 Pa | vapor pressure p ([2]; crystalline phase, T = 314.41 K): 5.68 Pa | vapor pressure p ([2]; crystalline phase, T = 316.45 K): 7.02 Pa | vapor pressure p ([2]; crystalline phase, T = 318.40 K): 8.62 Pa | vapor pressure p ([2]; crystalline phase, T = 320.45 K): 10.52 Pa | vapor pressure p ([2]; crystalline phase, T = 322.40 K): 12.77 Pa | vapor pressure p ([2]; crystalline phase, T = 324.42 K): 15.66 Pa | vapor pressure p ([2]; crystalline phase, T = 326.34 K): 18.87 Pa | vapor pressure p ([2]; crystalline phase, T = 328.34 K): 22.67 Pa | vapor pressure p ([2]; crystalline phase, T = 330.30 K): 27.33 Pa | vapor pressure p ([2]; crystalline phase, T = 332.29 K): 32.89 Pa | vapor pressure p ([2]; crystalline phase, T = 334.27 K): 39.51 Pa | vapor pressure p ([2]; crystalline phase, T = 336.23 K): 46.91 Pa | vapor pressure p ([2]; crystalline phase, T = 338.20 K): 56.28 Pa | vapor pressure p ([2]; liquid phase, T = 344.17 K): 91.46 Pa | vapor pressure p ([2]; liquid phase, T = 346.13 K): 103.7 Pa | vapor pressure p ([2]; liquid phase, T = 348.09 K): 118.4 Pa | vapor pressure p ([2]; liquid phase, T = 350.07 K): 133.6 Pa | vapor pressure p ([2]; liquid phase, T = 352.10 K): 151.3 Pa | vapor pressure p ([2]; liquid phase, T = 354.09 K): 168.0 Pa | vapor pressure p ([2]; liquid phase, T = 356.04 K): 190.2 Pa | vapor pressure p ([2]; liquid phase, T = 358.03 K): 212.4 Pa | vapor pressure p ([2]; liquid phase, T = 359.98 K): 239.9 Pa | vapor pressure p ([2]; liquid phase, T = 361.98 K): 266.2 Pa | vapor pressure p ([2]; liquid phase, T = 363.92 K): 297.7 Pa | vapor pressure p ([2]; liquid phase, T = 365.92 K): 333.0 Pa | vapor pressure p ([2]; liquid phase, T = 367.87 K): 372.6 Pa | vapor pressure p ([2]; liquid phase, T = 369.87 K): 415.4 Pa | vapor pressure p ([2]; liquid phase, T = 371.82 K): 456.8 Pa | vapor pressure p ([2]; liquid phase, T = 373.82 K): 506.8 Pa | vapor pressure p ([2]; liquid phase, T = 375.77 K): 559.6 Pa | vapor pressure p ([2]; liquid phase, T = 377.79 K): 620.3 Pa | vapor pressure p ([2]; liquid phase, T = 379.71 K): 682.3 Pa | vapor pressure p ([2]; liquid phase, T = 381.71 K): 755.4 Pa | vapor pressure p ([2]; liquid phase, T = 383.62 K): 827.1 Pa | vapor pressure p ([2]; supercooled liquid, T = 334.28 K): 48.38 ^d Pa | vapor pressure p ([2]; supercooled liquid, T = 335.87 K): 53.45 ^d Pa | vapor pressure p ([2]; supercooled liquid, T = 338.22 K): 62.48 ^d Pa | vapor pressure p ([2]; supercooled liquid, T = 340.16 K): 71.24 ^d Pa | vapor pressure p ([2]; supercooled liquid, T = 342.24 K): 81.73 ^d Pa
Compound: O=Cc1c(Cl)cccc1Cl [2,6-Dichlorobenzaldehyde]

pH of the saturated solution [1]: 6.82 | vapor pressure p ([2]; crystalline phase, T = 283.09 K): 0.83 Pa | vapor pressure p ([2]; crystalline phase, T = 285.23 K): 1.07 Pa | vapor pressure p ([2]; crystalline phase, T = 287.05 K): 1.33 Pa | vapor pressure p ([2]; crystalline phase, T = 289.17 K): 1.71 Pa | vapor pressure p ([2]; crystalline phase, T = 291.17 K): 2.13 Pa | vapor pressure p ([2]; crystalline phase, T = 292.95 K): 2.63 Pa | vapor pressure p ([2]; crystalline phase, T = 295.00 K): 3.25 Pa | vapor pressure p ([2]; crystalline phase, T = 297.08 K): 4.12 Pa | vapor pressure p ([2]; crystalline phase, T = 298.95 K): 4.98 Pa | vapor pressure p ([2]; crystalline phase, T = 301.06 K): 6.27 Pa | vapor pressure p ([2]; crystalline phase, T = 302.93 K): 7.60 Pa | vapor pressure p ([2]; crystalline phase, T = 304.86 K): 9.21 Pa | vapor pressure p ([2]; crystalline phase, T = 306.87 K): 11.43 Pa | vapor pressure p ([2]; crystalline phase, T = 308.76 K): 13.82 Pa | vapor pressure p ([2]; crystalline phase, T = 310.84 K): 17.02 Pa | vapor pressure p ([2]; crystalline phase, T = 312.78 K): 20.28 Pa | vapor pressure p ([2]; crystalline phase, T = 314.77 K): 24.88 Pa | vapor pressure p ([2]; crystalline phase, T = 316.79 K): 29.92 Pa | vapor pressure p ([2]; crystalline phase, T = 318.78 K): 36.33 Pa | vapor pressure p ([2]; crystalline phase, T = 320.66 K): 43.34 Pa | vapor pressure p ([2]; crystalline phase, T = 322.62 K): 51.66 Pa | vapor pressure p ([2]; crystalline phase, T = 324.68 K): 61.49 Pa | vapor pressure p ([2]; liquid phase, T = 330.60 K): 103.9 Pa | vapor pressure p ([2]; liquid phase, T = 332.51 K): 117.8 Pa | vapor pressure p ([2]; liquid phase, T = 334.45 K): 131.9 Pa | vapor pressure p ([2]; liquid phase, T = 336.48 K): 148.9 Pa | vapor pressure p ([2]; liquid phase, T = 338.43 K): 168.4 Pa | vapor pressure p ([2]; liquid phase, T = 340.46 K): 189.9 Pa | vapor pressure p ([2]; liquid phase, T = 342.44 K): 213.5 Pa | vapor pressure p ([2]; liquid phase, T = 344.41 K): 240.4 Pa | vapor pressure p ([2]; liquid phase, T = 346.34 K): 266.7 Pa | vapor pressure p ([2]; liquid phase, T = 348.34 K): 300.1 Pa | vapor pressure p ([2]; liquid phase, T = 350.32 K): 333.2 Pa | vapor pressure p ([2]; liquid phase, T = 352.34 K): 375.3 Pa | vapor pressure p ([2]; liquid phase, T = 354.27 K): 418.5 Pa | vapor pressure p ([2]; liquid phase, T = 356.26 K): 463.6 Pa | vapor pressure p ([2]; liquid phase, T = 358.21 K): 513.4 Pa | vapor pressure p ([2]; liquid phase, T = 360.13 K): 573.1 Pa | vapor pressure p ([2]; liquid phase, T = 362.14 K): 628.6 Pa | vapor pressure p ([2]; liquid phase, T = 364.12 K): 701.8 Pa | vapor pressure p ([2]; liquid phase, T = 366.10 K): 775.8 Pa | vapor pressure p ([2]; liquid phase, T = 368.08 K): 860.4 Pa | vapor pressure p ([2]; liquid phase, T = 370.05 K): 946.6 Pa | vapor pressure p ([2]; liquid phase, T = 371.99 K): 1026 Pa | vapor pressure p ([2]; liquid phase, T = 373.98 K): 1147 Pa | vapor pressure p ([2]; supercooled liquid, T = 316.76 K): 39.76 ^d Pa | vapor pressure p ([2]; supercooled liquid, T = 318.77 K): 46.26 ^d Pa | vapor pressure p ([2]; supercooled liquid, T = 320.73 K): 53.22 ^d Pa | vapor pressure p ([2]; supercooled liquid, T = 322.70 K): 60.73 ^d Pa | vapor pressure p ([2]; supercooled liquid, T = 324.68 K): 69.79 ^d Pa | vapor pressure p ([2]; supercooled liquid, T = 326.64 K): 79.36 ^d Pa | vapor pressure p ([2]; supercooled liquid, T = 328.63 K): 90.64 ^d Pa
Compound: O=Cc1ccc(Br)cc1 [4-Bromobenzaldehyde]
water solubility, estimated value ([3]; ALI method): 7060 µM (≈ 1310 µg/mL) | water solubility, estimated value ([3]; ESOL method): 1680 µM (≈ 311 µg/mL) | water solubility, estimated value ([3]; SILICO-IT method): 634 µM (≈ 117 µg/mL)

Source: article PMC11990670, “Exploring the Volatility, Phase Transitions, and Solubility Properties of Five Halogenated Benzaldehydes” (Molecules, 2025)
